Data set [1] relates to GRANTA-519 (human B Cell lymphoma). Put plainly: Cytotoxicity assay (CellTiter-Glo), GRANTA-519. To be noted: for IC50: read-out: Absolute IC50.
Source text: (§3) The homogeneous assay procedure involves adding a single reagent (CellTiter-Glo® Reagent) directly to cells cultured in serum-supplemented medium. The homogeneous “add-mix-measure” format results in cell lysis and generation of a luminescent signal proportional to the amount of ATP present. The amount of ATP is directly proportional to the number of cells present in culture. The assay generates a luminescent signal, produced by the luciferase reaction.
(§4) Determination of the Half Maximal Inhibition Concentration IC50: • 1. Harvest cells during the logarithmic growth period and count cell number using Count-star. • 2. […] Add 90 μL cell suspensions to two 96-well plates (plates A and B) with the final cell density of 4×10^3 cells/well. (cell concentration is adjusted according to the data base or density optimization assay.)
(§5) Next day: For the Plates of T0 Reading: • 1) Add 10 μL culture medium to each well of plate A for T0 reading. • 2) Equilibrate the plate and its content at RT for approximately 30 min. • 3) Add 50 μL CellTiter-Glo (CTG) reagent to each well. • 4) Mix content for 5 min on an orbital shaker to induce cell lysis. • 5) Allow the plate to incubate at RT for 20 min to stabilize luminescent signal. Note: Uneven luminescent signal within standard plates can be caused by temperature gradients, uneven seeding of cells or edge effects in multiwell plates. • 6) Record luminescence (T0) using EnVision Multi Label Reader.
(§6) Note: Uneven luminescent signal within standard plates can be caused by temperature gradients, uneven seeding of cells or edge effects in multiwall plates. • 9) Record luminescence.
(§7) In order to calculate absolute IC50 (EC50), a dose-response curve was fitted using nonlinear regression model with a sigmoidal dose response. The formula for calculating surviving rate is shown below and the absolute IC50 (EC50) was calculated according to the dose-response curve generated by GraphPad Prism 5.0.
(§8) The surviving rate (%)=(LumTest article−LumMedium control)/(LumNon-treated−LumMedium control)×100%.
Data set [2] concerns K-562 (human chronic myelogenous leukemia). As to the kind of experiment: Cytotoxicity assay (CellTiter-Glo), K-562. The class given is cell-based. The conditions noted are these: for IC50: CellTiter-Glo, read-out: Absolute IC50. The source says:
(§1) Determination of the Half Maximal Inhibition Concentration IC50: • 1.

In data set [3] the test system is DU 145 (human prostate cancer). Put plainly: Cytotoxicity assay (CellTiter-Glo), DU 145. In kind it is cell-based. The conditions noted are these: for IC50: CellTiter-Glo, read-out: Absolute IC50.
Source text: as §1

For data set [4], the system named is HeLa (human cervical cancer). Put plainly: Cytotoxicity assay (CellTiter-Glo), HeLa. In kind it is cell-based.
Source text: as §1

A further data set has as its target CDK9/cyclin K (Homo sapiens, UniProt P50750). Put plainly: Kinase inhibition, CDK9/cyclin K. The class given is biochemical. The conditions noted are these: 10 μM ATP; read-out: Compound IC50 (M), CDK9/cyclin K. The procedure:
(§2) The compounds in Table 1 were tested for the ability to inhibit the kinase activity of the listed protein kinases.

In data set [5] the test system is GRANTA-519 (human B Cell lymphoma).
Source text: as §3, §4, §5, §6, §7, §8
A further data set has as its target PDGFRb (Homo sapiens, UniProt P09619). Put plainly: Kinase inhibition, PDGFRb. The class given is biochemical. To be noted: 10 μM ATP; read-out: Compound IC50 (M), PDGFRb. As to the method:
as §2

The target in a further data set is CDK4/cyclin D1 (Homo sapiens, UniProt P11802). Put plainly: Kinase inhibition, CDK4/cyclin D1. In kind it is biochemical. To be noted: 10 μM ATP; read-out: Compound IC50 (M), CDK4/cyclin D1. The procedure: as §2
A further data set addresses ABL1 (Homo sapiens, UniProt P00519). Put plainly: Kinase inhibition, ABL1. The class given is biochemical. To be noted: 10 μM ATP; read-out: Compound IC50 (M), ABL1. As to the method: as §2
The target in a further data set is FLT4/VEGFR3 (Homo sapiens, UniProt P35916). Put plainly: Kinase inhibition, FLT4/VEGFR3. The class given is biochemical. The conditions noted are these: 10 μM ATP; read-out: Compound IC50 (M), FLT4/VEGFR3. As to the method:
The compounds in Table 1 were tested for the ability to inhibit the kinase activity of the listed protein kinases. […]

A further data set addresses T1, FLT3 (Homo sapiens, UniProt P36888).
T1 sequence (P36888 27-993): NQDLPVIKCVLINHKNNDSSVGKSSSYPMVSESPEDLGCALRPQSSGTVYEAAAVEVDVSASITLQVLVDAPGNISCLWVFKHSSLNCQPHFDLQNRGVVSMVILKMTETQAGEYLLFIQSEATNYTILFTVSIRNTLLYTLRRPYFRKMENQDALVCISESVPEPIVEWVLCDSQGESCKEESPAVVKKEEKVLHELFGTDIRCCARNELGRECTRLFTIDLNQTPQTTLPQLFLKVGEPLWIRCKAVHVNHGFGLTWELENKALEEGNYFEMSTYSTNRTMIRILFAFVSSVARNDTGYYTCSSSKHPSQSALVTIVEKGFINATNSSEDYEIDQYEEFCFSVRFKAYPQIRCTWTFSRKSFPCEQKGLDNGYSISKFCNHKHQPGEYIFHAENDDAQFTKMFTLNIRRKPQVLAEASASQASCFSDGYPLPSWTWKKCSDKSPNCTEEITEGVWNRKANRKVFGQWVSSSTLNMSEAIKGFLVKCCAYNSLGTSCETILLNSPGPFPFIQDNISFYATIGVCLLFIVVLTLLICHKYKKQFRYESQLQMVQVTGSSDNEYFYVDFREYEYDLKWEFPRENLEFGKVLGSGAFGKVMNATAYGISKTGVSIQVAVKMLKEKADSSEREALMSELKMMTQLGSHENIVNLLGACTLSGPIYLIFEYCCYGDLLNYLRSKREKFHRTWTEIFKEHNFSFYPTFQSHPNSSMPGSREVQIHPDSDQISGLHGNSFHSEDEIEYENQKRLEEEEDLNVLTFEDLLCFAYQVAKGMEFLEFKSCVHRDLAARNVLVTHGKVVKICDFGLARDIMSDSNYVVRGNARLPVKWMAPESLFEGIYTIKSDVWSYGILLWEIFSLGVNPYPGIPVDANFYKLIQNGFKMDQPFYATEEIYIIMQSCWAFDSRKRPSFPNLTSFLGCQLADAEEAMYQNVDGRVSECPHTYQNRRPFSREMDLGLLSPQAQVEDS
As to the kind of experiment: Kinase inhibition, FLT3. In kind it is biochemical. To be noted: 10 μM ATP; values <1 nM estimated from best curve fitting; read-out: Compound IC50 (M), FLT3. The procedure:
as §2

The next data set concerns the target RET (Homo sapiens, UniProt P07949). Put plainly: Kinase inhibition, RET. The conditions noted are these: 10 μM ATP; read-out: Compound IC50 (M), RET. The class given is biochemical. As to the method:
as §2

The next data set has as its target CDK6/cyclin D3 (Homo sapiens, UniProt Q00534). As to the kind of experiment: Kinase inhibition, CDK6/cyclin D3. To be noted: 10 μM ATP; read-out: Compound IC50 (M), CDK6/cyclin D3. In kind it is biochemical. The procedure:
as §2

In another data set the target is T2, PKG2/PRKG2 (Homo sapiens, UniProt Q13237).
T2 sequence (Q13237 1-762): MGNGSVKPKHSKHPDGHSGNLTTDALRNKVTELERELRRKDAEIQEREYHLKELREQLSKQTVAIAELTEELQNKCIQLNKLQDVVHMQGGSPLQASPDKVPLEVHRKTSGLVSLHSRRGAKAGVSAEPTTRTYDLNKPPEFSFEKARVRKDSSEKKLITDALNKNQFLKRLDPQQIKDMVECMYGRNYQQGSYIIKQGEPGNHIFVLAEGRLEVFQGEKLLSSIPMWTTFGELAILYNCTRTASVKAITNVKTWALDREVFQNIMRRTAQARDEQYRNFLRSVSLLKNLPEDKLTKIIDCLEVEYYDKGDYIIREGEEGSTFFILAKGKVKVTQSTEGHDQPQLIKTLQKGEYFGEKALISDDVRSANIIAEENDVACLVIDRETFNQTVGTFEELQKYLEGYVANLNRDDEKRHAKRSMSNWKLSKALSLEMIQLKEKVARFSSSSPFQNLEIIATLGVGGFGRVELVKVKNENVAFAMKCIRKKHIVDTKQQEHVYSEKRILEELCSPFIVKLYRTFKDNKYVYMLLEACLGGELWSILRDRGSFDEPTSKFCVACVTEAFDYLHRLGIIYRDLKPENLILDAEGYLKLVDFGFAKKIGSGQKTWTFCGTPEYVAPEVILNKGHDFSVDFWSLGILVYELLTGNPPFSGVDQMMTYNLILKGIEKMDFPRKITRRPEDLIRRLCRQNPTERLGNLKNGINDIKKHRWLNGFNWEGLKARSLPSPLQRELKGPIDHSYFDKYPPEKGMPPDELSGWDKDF
As to the kind of experiment: Kinase inhibition, PKG2/PRKG2. The class given is biochemical. The conditions noted are these: 10 μM ATP; read-out: Compound IC50 (M), PKG2/PRKG2. As to the method: as §2

In the next data set the target is CDK6/cyclin D1 (Homo sapiens, UniProt Q00534). Put plainly: Kinase inhibition, CDK6/cyclin D1. The class given is biochemical. The conditions noted are these: 10 μM ATP; values <1 nM estimated from best curve fitting; read-out: Compound IC50 (M), CDK6/cyclin D1. The procedure: as §2
A further data set has as its target FYN (Homo sapiens, UniProt P06241). As to the kind of experiment: Kinase inhibition, FYN. To be noted: 10 μM ATP; read-out: Compound IC50 (M), FYN. The class given is biochemical. As to the method: as §2
The next data set concerns the target FGFR1 (Homo sapiens, UniProt P11362). As to the kind of experiment: Kinase inhibition, FGFR1. To be noted: 10 μM ATP; read-out: Compound IC50 (M), FGFR1. The class given is biochemical. The procedure: as §2
A further data set has as its target CDK4/cyclin D3 (Homo sapiens, UniProt P11802). Put plainly: Kinase inhibition, CDK4/cyclin D3. The class given is biochemical. The conditions noted are these: 10 μM ATP; read-out: Compound IC50 (M), CDK4/cyclin D3. As to the method: as §2
A further data set deals with T3, ARK5/NUAK1 (Homo sapiens, UniProt O60285).
T3 sequence (O60285 1-661): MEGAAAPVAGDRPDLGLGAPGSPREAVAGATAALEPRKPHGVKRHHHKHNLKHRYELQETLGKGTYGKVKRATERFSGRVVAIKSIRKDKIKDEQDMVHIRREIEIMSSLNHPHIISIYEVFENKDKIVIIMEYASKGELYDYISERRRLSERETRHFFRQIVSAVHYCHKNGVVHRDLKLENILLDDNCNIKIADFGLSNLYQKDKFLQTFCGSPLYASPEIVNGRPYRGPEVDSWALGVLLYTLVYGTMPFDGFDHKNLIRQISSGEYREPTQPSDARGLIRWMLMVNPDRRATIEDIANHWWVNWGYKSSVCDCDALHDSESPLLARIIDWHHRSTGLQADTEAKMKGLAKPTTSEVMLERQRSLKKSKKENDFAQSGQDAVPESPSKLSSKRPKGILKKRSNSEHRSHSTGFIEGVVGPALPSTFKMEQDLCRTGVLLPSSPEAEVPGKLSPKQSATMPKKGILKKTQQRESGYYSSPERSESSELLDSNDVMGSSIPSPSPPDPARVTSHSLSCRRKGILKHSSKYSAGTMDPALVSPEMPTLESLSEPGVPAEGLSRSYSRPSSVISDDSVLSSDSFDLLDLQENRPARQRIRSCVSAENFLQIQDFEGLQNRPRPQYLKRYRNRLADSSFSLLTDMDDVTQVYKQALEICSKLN
As to the kind of experiment: Kinase inhibition, ARK5/NUAK1. To be noted: 10 μM ATP; values <1 nM estimated from best curve fitting; read-out: Compound IC50 (M), ARK5/NUAK1. In kind it is biochemical. As to the method: as §2

The structures appear in SMILES notation. Where two headings read alike, the source gives them in different places.

FLT4/VEGFR3, sequence (P35916 25-1363): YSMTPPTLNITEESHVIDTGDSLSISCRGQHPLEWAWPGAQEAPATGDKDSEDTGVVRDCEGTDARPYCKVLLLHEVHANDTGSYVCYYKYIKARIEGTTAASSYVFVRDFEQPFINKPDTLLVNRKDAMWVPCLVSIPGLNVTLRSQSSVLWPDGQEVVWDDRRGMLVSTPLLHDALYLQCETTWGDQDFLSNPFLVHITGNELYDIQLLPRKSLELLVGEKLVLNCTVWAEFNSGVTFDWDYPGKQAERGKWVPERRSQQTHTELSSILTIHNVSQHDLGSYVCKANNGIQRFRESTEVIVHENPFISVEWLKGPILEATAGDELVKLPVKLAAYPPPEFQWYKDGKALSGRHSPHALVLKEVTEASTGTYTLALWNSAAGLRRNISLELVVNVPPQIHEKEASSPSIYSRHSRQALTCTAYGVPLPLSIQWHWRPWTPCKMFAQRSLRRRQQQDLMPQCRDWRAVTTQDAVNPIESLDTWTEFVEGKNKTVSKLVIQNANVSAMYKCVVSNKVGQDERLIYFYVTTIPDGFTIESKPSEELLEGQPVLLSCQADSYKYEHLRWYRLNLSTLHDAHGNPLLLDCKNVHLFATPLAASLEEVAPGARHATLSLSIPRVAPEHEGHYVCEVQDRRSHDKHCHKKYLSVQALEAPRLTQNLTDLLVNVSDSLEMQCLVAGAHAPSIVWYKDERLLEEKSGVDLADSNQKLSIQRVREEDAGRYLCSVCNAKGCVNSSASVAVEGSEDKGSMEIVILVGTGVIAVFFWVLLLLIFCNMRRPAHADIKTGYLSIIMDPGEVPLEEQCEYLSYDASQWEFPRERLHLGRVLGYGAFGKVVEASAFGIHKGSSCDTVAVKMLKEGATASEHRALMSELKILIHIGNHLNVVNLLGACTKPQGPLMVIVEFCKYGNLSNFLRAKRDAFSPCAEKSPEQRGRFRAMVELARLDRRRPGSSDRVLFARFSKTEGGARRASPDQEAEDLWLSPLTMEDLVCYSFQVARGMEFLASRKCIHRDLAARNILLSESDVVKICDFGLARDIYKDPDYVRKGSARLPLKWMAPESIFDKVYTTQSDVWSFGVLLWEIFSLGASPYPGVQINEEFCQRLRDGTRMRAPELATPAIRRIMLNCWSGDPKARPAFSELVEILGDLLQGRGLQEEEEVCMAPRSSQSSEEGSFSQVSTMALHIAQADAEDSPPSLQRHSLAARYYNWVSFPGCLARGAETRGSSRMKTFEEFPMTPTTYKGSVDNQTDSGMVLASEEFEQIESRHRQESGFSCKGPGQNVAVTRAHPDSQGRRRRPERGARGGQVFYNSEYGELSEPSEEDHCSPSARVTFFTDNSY
ABL1, sequence (P00519 whole entry): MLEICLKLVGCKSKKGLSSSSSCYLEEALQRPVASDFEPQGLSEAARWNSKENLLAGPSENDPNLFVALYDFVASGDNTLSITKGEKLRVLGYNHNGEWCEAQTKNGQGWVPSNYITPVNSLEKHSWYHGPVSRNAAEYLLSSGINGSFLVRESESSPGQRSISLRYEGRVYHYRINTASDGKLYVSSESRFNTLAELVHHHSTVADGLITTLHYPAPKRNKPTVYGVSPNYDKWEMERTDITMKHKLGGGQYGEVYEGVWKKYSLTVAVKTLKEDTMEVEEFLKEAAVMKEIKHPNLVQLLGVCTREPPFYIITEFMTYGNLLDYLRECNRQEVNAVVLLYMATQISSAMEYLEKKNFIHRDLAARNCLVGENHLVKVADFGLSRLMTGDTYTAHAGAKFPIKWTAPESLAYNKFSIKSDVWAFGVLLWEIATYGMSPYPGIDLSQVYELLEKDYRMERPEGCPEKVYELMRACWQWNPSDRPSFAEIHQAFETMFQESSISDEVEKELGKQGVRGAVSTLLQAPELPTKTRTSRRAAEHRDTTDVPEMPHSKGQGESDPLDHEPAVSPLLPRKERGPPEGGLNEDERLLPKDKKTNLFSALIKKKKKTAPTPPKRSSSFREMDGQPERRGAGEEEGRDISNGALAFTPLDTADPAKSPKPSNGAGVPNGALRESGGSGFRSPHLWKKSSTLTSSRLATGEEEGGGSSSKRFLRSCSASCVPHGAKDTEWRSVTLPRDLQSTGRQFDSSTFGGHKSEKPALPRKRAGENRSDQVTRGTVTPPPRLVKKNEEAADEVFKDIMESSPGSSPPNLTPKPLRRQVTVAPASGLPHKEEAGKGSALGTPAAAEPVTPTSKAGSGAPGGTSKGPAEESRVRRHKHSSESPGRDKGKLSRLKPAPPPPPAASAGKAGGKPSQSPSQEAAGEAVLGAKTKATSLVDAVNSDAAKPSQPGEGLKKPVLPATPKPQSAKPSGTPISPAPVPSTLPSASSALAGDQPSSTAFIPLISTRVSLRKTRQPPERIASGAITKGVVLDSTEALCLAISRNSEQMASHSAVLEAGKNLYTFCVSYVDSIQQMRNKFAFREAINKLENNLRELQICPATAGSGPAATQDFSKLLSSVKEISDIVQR
PDGFRb, sequence (P09619 33-1106): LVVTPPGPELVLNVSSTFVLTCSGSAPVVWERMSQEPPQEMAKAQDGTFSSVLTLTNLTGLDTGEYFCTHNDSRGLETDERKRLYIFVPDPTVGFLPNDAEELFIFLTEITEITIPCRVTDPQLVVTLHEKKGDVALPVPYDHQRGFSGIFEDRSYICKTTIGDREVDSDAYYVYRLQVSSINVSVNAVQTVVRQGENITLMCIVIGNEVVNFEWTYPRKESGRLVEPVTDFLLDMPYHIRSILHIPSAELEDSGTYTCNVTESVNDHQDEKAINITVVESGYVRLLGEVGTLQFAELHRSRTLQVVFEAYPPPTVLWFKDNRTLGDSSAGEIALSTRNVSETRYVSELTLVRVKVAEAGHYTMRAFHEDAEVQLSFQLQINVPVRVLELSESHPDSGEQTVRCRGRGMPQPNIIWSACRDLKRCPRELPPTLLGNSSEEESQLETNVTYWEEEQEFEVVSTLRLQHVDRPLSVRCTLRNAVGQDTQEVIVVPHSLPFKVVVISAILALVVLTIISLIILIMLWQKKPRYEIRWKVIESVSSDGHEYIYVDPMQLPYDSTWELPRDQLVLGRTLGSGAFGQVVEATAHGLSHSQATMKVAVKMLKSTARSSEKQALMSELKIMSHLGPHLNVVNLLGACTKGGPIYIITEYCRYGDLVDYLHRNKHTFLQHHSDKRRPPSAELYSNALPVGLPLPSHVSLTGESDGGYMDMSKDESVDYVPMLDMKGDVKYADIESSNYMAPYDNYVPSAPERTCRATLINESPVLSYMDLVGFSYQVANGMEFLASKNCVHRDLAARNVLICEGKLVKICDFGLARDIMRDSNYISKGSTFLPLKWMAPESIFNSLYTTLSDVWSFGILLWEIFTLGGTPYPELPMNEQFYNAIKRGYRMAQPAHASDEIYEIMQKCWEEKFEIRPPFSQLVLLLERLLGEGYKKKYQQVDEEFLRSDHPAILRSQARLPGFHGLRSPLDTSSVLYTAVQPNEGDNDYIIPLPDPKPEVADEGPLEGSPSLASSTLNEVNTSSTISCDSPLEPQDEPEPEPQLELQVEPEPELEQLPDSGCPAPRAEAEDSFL
CDK9/cyclin K, sequence (P50750 whole entry): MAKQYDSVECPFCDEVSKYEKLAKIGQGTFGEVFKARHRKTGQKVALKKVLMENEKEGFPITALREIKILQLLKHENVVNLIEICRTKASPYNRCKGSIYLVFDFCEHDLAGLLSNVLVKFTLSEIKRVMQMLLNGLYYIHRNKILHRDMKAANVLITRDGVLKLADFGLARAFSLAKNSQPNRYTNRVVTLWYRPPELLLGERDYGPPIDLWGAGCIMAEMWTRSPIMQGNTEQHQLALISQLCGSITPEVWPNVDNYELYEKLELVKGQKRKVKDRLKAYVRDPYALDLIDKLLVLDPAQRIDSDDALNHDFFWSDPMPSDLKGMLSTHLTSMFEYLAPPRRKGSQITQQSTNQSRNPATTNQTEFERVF
CDK9/cyclin K, sequence (O75909 whole entry partner): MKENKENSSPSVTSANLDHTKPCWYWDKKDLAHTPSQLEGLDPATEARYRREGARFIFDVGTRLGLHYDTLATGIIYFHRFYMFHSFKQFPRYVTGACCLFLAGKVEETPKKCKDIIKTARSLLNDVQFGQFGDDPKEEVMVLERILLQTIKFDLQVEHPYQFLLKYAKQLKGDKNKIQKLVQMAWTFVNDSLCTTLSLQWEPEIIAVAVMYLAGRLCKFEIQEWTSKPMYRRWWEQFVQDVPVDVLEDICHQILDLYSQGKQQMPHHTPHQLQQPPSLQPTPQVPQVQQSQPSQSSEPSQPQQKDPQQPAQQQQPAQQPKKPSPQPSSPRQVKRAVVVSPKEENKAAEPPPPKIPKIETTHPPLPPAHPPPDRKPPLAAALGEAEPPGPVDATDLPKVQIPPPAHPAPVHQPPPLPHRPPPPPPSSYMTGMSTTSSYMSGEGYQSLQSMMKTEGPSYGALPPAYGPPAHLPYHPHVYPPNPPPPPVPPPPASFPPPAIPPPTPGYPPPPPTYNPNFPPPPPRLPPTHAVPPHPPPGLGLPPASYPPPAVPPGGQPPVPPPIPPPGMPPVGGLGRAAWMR
FYN, sequence (P06241 whole entry): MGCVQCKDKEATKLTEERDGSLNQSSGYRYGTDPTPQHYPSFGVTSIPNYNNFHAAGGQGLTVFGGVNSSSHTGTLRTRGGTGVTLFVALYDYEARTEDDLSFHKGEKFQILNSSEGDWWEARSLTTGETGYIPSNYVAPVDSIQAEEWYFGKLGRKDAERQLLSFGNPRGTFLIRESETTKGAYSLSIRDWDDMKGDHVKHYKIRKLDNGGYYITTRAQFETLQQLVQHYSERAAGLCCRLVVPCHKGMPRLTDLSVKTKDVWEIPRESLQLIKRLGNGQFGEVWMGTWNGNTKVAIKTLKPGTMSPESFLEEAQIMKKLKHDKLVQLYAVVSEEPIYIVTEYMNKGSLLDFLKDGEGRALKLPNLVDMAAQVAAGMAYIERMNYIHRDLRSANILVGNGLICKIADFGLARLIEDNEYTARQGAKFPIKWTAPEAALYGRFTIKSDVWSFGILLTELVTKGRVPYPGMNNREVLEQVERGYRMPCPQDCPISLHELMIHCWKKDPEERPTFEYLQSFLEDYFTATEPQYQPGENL

As for `N.N.[Cl][Pt][Cl]` [Cisplatin, reference compound], the “% inhibition at top conc.” value in [1] (GRANTA-519, 72 h, top working concentration 100 μM) is on record as 77.25%; in data set [2] (K-562, 72 h, top working concentration 100 μM), 98.74%; in [3] (DU 145, 72 h, top working concentration 100 μM), 95.44%; in data set [4] (HeLa, 72 h, top working concentration 100 μM), 99.18%. The IC50 in data set [1] (GRANTA-519, 72 h, CellTiter-Glo) turned out to be 1680 nM; in data set [2] (K-562, 72 h) it was 3760 nM; in data set [3] (DU 145, 72 h) it was 960 nM.
`N#Cc1cc2cnc(Nc3ccc(N4CCNCC4)cc3)nc2n(C2CCCC2)c1=O` [ON 1232580, 8-Cyclopentyl-7-oxo-2-(4-piperazin-1-yl-phenylamino)-7,8-dihydro-pyrido[2,3-d]pyrimidine-6-carbonitrile]: the IC50 is 8.06e-09 M at CDK9/cyclin K; 400 nM in data set [1] (Homo sapiens, Granta-519, 72 h); 6.12e-09 M on PDGFRb; less than 1e-09 M at CDK4/cyclin D1; 2.01e-08 M on ABL1; 1190 nM in [2] (Homo sapiens, K562, K-562, 72 h). Further, the IC50 on FLT4/VEGFR3 is 6.97e-09 M; on FLT3, 4.25e-09 M; on RET, 8.13e-09 M; at CDK6/cyclin D3, 2.97e-09 M; on PKG2/PRKG2, greater than 0.0001 M; in data set [3] (Homo sapiens, DU 145, 72 h) it was 930 nM. The IC50 on CDK6/cyclin D1 is less than 1e-09 M; at FYN it was 3.29e-08 M; in data set [4] (Homo sapiens, HeLa, 72 h, CellTiter-Glo, read-out: Absolute IC50), 1500 nM; on FGFR1, 3.09e-08 M; on CDK4/cyclin D3, 2.77e-09 M; at ARK5/NUAK1, 2.28e-09 M. In addition, the “Cytotoxicity, result in words” value in [5] is given as “potent killer”; in [2] (K-562 cells), “potent inhibitor”; in [3] (DU 145 cells) it was “potent inhibitor”; in data set [4] (HeLa cells) it was “potent inhibitor”. Besides, the inhibition at 100 µM in data set [1] (Homo sapiens, Granta-519, 72 h, read-out: % inhibition at top conc.) was determined as 100%; in data set [2] (Homo sapiens, K562, K-562, 72 h, top working concentration 100 μM, read-out: % inhibition at top conc.), 100%; in data set [3] (Homo sapiens, DU 145, 72 h, top working concentration 100 μM, read-out: % inhibition at top conc.), 99.9%; in data set [4] (Homo sapiens, HeLa, 72 h, top working concentration 100 μM, read-out: % inhibition at top conc.) it was 100%.
As for `CC(=O)c1c(C)c2cnc(Nc3ccc(N4CCNCC4)cn3)nc2n(C2CCCC2)c1=O` [Palbociclib, palbociclib, reference compound], the IC50 at FLT4/VEGFR3 is 1.72e-05 M; at ARK5/NUAK1 it was 1.91e-06 M.

The values above are taken from US20220002293A1, “8-CYCLOPENTYL-7-OXO-2-(4-PIPERAZIN-1-YL-PHENYLAMINO)-7, 8-DIHYDRO-PYRIDO [2,3-D]PYRIMIDINE-6-CARBONITRILE AND USES THEREOF IN TREATING PROLIFERATIVE DISORDERS” (ONCONOVA THERAPEUTICS, INC., priority 2018, published 2022).
